Data as given in patent US4078049A, “Acetylcholine assay” (Hoffmann-La Roche Inc., priority 1977, dated 1978).

Test system: antibody in the antiserum of rabbit immunized by the acetylcholine bovine serum albumin immunogen
Test: Radioimmunoassay specificity: inhibition of binding of acetylcholine-H^3 to the antibody
Method: The volume was adjusted to 0.5 ml with phosphate-buffered saline, pH 7.4, which is the optimal pH for the assay. […]. […] After 2 washings with 50% saturated ammonium sulfate, the precipitate was dissolved in 0.5 ml of water. […] The 12 ml washings were all collected in the vial. The radioactivity was then counted with a Beckman liquid scintillation counter. The dilution of the antiserum chosen for further studies was 1:50.

SMILES | IC50 (read-out: concentration producing 50% inhibition of binding of acetylcholine --H^3 to the antibody, antiserum 1:50, incubated 2 hours at 4° C, pH 7.4, eserine present, ammonium sulfate precipitation) [nM] | recognition by the antibody (competition with labelled acetylcholine) (antiserum incubated with acetate in the presence of labelled acetylcholine)
CC(=O)OCC[N+](C)(C)C [Acetylcholine, acetylcholine] | 0.03 | 
CC(=O)O [acetate] |  | failed to recognize
